“Also recorded” adds a separate entry of the source. Square brackets hold non-standard residues; d marks the D form. Ends that are not written are not given here. Peptide text beside a SMILES is read from it. * marks the point of attachment. Sta = CC(C)C[C@H](N)[C@@H](O)CC(=O)O; Isovaleryl = CC(C)CC(=O)*
Experiments:
[1] = test system: PC12 cells; test: Inclusion formation of tNhtt-60Q-Venus with or without HSC70bm in PC12 cells; assay type: cell-based, rat; conditions: 10 mM 3MA, 10 μM pepstatin A
Description: The tNhtt-16Q-EGFP and tNhtt-150Q-EGFP plasmids for transient transfection were prepared by the introduction of the coding sequence into pcDNA3.1 vector (Invitrogen). […] HSC70bm were amplified with primers containing SalI in the forward and XmaI cutting site in the reverse primer from the 60QHsc construct. […] To produce molecules without mRFP tag, all constructs were amplified using primers containing BamHI in the forward and XbaI in the reverse primer, respectively, and introduced to pcDNA3.1 vector.
Rat pheochromocytoma (PC12) cells were grown in the same conditions as Neuro2a cells, except for the serum composition of 5% of fetal bovine and 10% of horse serum (Sigma). […]
In each well, at least 10000 cells were counted and quantified for the presence of the inclusions. […] The screening itself consisted of two scans using Hoechst, FITC (for GFP) and TRITC (for RFP) fluorescence. […] The percentage of the cells with aggregates was then calculated. When the constructs without mRFP were used for transfection, the procedure was same, except the RFP intensity was not measured. […]

[2] = test system: 150Q Neuro2a cells; test: Cell death assay (propidium iodide uptake) in 150Q Neuro2a cells; assay type: cell-based, mouse; conditions: after 60 hours of induction
Description: (§1) Mouse neuroblastoma (Neuro2a) cells were maintained in Dulbecco's modified Eagle's medium (Sigma) supplemented with 10% heat-inactivated fetal bovine serum (Sigma), 100 U/ml penicillin and 100 μg/ml streptomycin (Invitrogen) at 37° C. in an atmosphere containing 5% CO2 and 95% air. Establishment of stable Neuro2a cell lines with the ecdysone-inducible mammalian expression system (Invitrogen), that express tNhtt-EGFP-16Q (16Q Neuro2a cells), tNhtt-EGFP-150Q (150Q Neuro2a cells) and tNhtt-EGFP-150Q-nls (150Q-nls Neuro2a cells) has been described earlier (T. Nagai et al., supra, H. Doi et al., supra, E. A. Zemskov et al., J Neurochem. 87, 2 (2003)). Neuro2a cells were differentiated with 5mM dbcAMP (N^6, 2′-O-dibutyryladenosine-3′,5′-cyclic monophosphate sodium salt) (Nacalai Tesque) and induced to express tNhtt-polyQ with 2 μM ponasterone A (ponA; Invitrogen) for indicated times. Neuro2a/FRT/TR cell line was generated as described in the protocol for Flp-in/T-Rex system (Invitrogen). […]
(§2) For quantification of cell death, 5 μg/ml each of Hoechst 33342 and propidium iodide (PI) were added to differentiated and induced Neuro2a cells transiently transfected with either of the tested constructs (FIG. 6A). After 10 minutes at 37° C., the number of cells with PI uptake over the total number of cells was calculated by ArrayScan.

[3] = test system: polyQ inclusions in 150Q-nls Neuro2a cells (tNhtt-EGFP-150Q-nls); test: ArrayScan quantification of polyQ inclusion formation in inducible 150Q-nls Neuro2a cells; assay type: cell-based, mouse; conditions: for decrease of the polyQ inclusion formation: 150Qnls Neuro2a cells, mRFP-tagged constructs, after 48 hours of differentiation and induction
Description: as §1, with “(Invitrogen). Neuro2a tNhtt-62Q-kikGR cell line was generated by transfecting Neuro2a/FRT/TR cells with the pFRT-HD62-KikGR and pOG44 (Invitrogen) constructs using Lipofectamine 2000 reagent and selected with 200 μg/ml hygromycin. The expression of the pFRT-tNhtt-62Q-KikGR was induced by 18 doxycycline treatment of the cells. For the photo-induced kikGR cleavage, cells were exposed to ˜400 nm wavelength for 5 minutes.” for “(Invitrogen).”
(§3) For the quantification of the inclusions, cells were grown in 24-well plates for indicated periods, fixed in 4% paraformaldehyde, washed and incubated with Hoechst 33258 at 1/1000 dilution in PBS. Cells were analyzed by ArrayScan® V^TI High Content Screening (HSC) Reader (Cellomics) using Target Activation BioApplication (TABA). TABA analyzes images acquired by a HSC Reader and provides measurements of the intracellular fluorescence intensity and localization on a cell-by-cell basis.
In each well, at least 10000 cells were counted and quantified for the presence of the inclusions. Nuclei stained with Hoechst 33285 provided the autofocus target and their count gave the exact number of the quantified cells. The screening itself consisted of two scans using Hoechst, FITC (for GFP) and TRITC (for RFP) fluorescence. Firstly, number of inclusions in transfected cells was calculated when fluorescent spots at size of at least 5 pixels (magnification 20× for cytoplasmic and 40× for nuclear aggregates) with average GFP intensity more than 1500 in the RFP background were counted. […] The percentage of the cells with aggregates was then calculated. When the constructs without mRFP were used for transfection, the procedure was same, except the RFP intensity was not measured. […] Data was generated from the quantification of more than 250,000 cells in each experimental set-up.

[4] = test system: 150Q-nls Neuro2a cells; test: Cell death assay (propidium iodide uptake) in 150Q-nls Neuro2a cells; assay type: cell-based, mouse; conditions: after 48 hours of induction
Description: as §1, §2

[5] = test system: polyQ inclusions in 150Q Neuro2a cells (tNhtt-EGFP-150Q); test: ArrayScan quantification of polyQ inclusion formation in inducible 150Q Neuro2a cells; assay type: cell-based, mouse; conditions: for decrease of inclusion formation: mRFP-tagged constructs, after 24 hours of differentiation and induction
Description: (§4) Mouse neuroblastoma (Neuro2a) cells were maintained in Dulbecco's modified Eagle's medium (Sigma) supplemented with 10% heat-inactivated fetal bovine serum (Sigma), 100 U/ml penicillin and 100 μg/ml streptomycin (Invitrogen) at 37° C. in an atmosphere containing 5% CO2 and 95% air. Establishment of stable Neuro2a cell lines with the ecdysone-inducible mammalian expression system (Invitrogen), that express tNhtt-EGFP-16Q (16Q Neuro2a cells), tNhtt-EGFP-150Q (150Q Neuro2a cells) and tNhtt-EGFP-150Q-nls (150Q-nls Neuro2a cells) has been described earlier (T. Nagai et al., supra, H. Doi et al., supra, E. A. Zemskov et al., J Neurochem. 87, 2 (2003)). Neuro2a cells were differentiated with 5mM dbcAMP (N^6, 2′-O-dibutyryladenosine-3′,5′-cyclic monophosphate sodium salt) (Nacalai Tesque) and induced to express tNhtt-polyQ with 2 μM ponasterone A (ponA; Invitrogen) for indicated times. Neuro2a/FRT/TR cell line was generated as described in the protocol for Flp-in/T-Rex system (Invitrogen). Neuro2a tNhtt-62Q-kikGR cell line was generated by transfecting Neuro2a/FRT/TR cells with the pFRT-HD62-KikGR and pOG44 (Invitrogen) constructs using Lipofectamine 2000 reagent and selected with 200 μg/ml hygromycin. The expression of the pFRT-tNhtt-62Q-KikGR was induced by 18 doxycycline treatment of the cells. For the photo-induced kikGR cleavage, cells were exposed to ˜400 nm wavelength for 5 minutes. Rat pheochromocytoma (PC12) cells were grown in the same conditions as Neuro2a cells, except for the serum composition of 5% of fetal bovine and 10% of horse serum (Sigma). All transient transfections were performed with Lipofectamine 2000 (Invitrogen) according to the manufacturer's instruction.
as §3
In each well, at least 10000 cells were counted and quantified for the presence of the inclusions. Nuclei stained with Hoechst 33285 provided the autofocus target and their count gave the exact number of the quantified cells. The screening itself consisted of two scans using Hoechst, FITC (for GFP) and TRITC (for RFP) fluorescence. Firstly, number of inclusions in transfected cells was calculated when fluorescent spots at size of at least 5 pixels (magnification 20× for cytoplasmic and 40× for nuclear aggregates) with average GFP intensity more than 1500 in the RFP background were counted. Secondly, nuclei were defined as the objects of interest and the cells with average intensity more than 50 within 3 pixels from the nucleus were selected for the analysis. The percentage of the cells with aggregates was then calculated. When the constructs without mRFP were used for transfection, the procedure was same, except the RFP intensity was not measured. Scanning was performed with triplicate or quadruplicate in each experimental condition. Data was generated from the quantification of more than 250,000 cells in each experimental set-up.

[6] = test system: tNhtt-16Q; test: Western blot of tNhtt-16Q levels in inducible Neuro2a cells; assay type: cell-based, human; conditions: inducible 16Q Neuro2a cells, transfection
Description: as §1
(§5) Cells were washed twice with ice-cold PBS, scraped, and resuspended in lysis buffer (0.5% Triton X-100 in PBS, 0.5 mM phenylmethylsulfonyl fluoride, Complete protease inhibitor mixture (Roche Applied Sciences)). […] Immunoreactive proteins were detected with enhanced chemiluminescence reagents (Amersham Biosciences). […]

[7] = target: T1, tNhtt-150Q (Homo sapiens, UniProt P42858); test: Western blot of polyQ aggregation (gel top) in 150Q Neuro2a cells; assay type: cell-based; conditions: expression of mRFP-tagged constructs
T1 construct: N-terminal fragment of human huntington exon 1 (tNhtt); expressed in transfected cells
T1 sequence (P42858 with tags, fused parts or gaps): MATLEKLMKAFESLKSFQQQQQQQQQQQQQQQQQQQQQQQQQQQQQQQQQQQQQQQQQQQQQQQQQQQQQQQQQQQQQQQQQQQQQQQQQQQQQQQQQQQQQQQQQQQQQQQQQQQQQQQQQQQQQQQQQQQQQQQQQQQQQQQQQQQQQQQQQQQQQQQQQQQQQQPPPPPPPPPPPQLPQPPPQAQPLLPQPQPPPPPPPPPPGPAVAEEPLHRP
Description: as §1, §5

[8] = test system: polyQ inclusions in 150Q Neuro2a cells; test: Confocal imaging of tested constructs in 150Q Neuro2a cells; assay type: cell-based, mouse
Description: as §4, with “Rat pheochromocytoma (PC12) cells were grown in the same conditions as Neuro2a cells, except for the serum composition of 5% of fetal bovine and 10% of horse serum (Sigma). All transient transfections were performed with Lipofectamine 2000 (Invitrogen) according to the manufacturer's instruction.” left out

[9] = target: T2, soluble tNhtt-60Q protein (Homo sapiens, UniProt P42858, INS38QQQQQQQQQQQQQQQQQQQQQQQQQQQQQQQQQQQQQQQ); test: Chase experiment in 60Q Neuro2a cells (Western blot); assay type: cell-based; conditions: after 24 hours chase
T2 construct: N-terminal fragment of human huntington exon 1 (tNhtt) encoding 60 CAG repeats; expressed in transfected cells; host or cells: 60Q Neuro2a cells (mouse neuroblastoma), ponasterone A induced
T2 sequence (P42858 with tags, fused parts or gaps with the stated changes): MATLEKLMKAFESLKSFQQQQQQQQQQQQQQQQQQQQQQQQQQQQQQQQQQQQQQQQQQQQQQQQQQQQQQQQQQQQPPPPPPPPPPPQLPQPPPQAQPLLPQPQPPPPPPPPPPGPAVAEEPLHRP
Description: (§6) To determine whether tNhtt-polyQ degrades faster in the presence of RHQ, chase experiments were performed. Neuro2a were first induced to express tNhtt-polyQ for 20 hrs in case of 60Q and 12 hrs in case of 150Q cells and then transfected with the tested constructs. Four hours later, ponaA was removed; cells were washed with PBS and incubated in the medium containing dbcAMP (for differentiation) for 24 hrs. Cells were lysed and the levels of tNhtt-polyQ were analyzed by Western blotting.
(§7) Cells were washed twice with ice-cold PBS, scraped, and resuspended in lysis buffer (0.5% Triton X-100 in PBS, 0.5 mM phenylmethylsulfonyl fluoride, Complete protease inhibitor mixture (Roche Applied Sciences)). After incubating on ice for 30 minutes lysates were briefly sonicated. Equal amounts of protein were boiled for 5 minutes in 2× SDS-sample buffer, separated by 5-12% gradient SDS-PAGE and electrophoretically transferred to a polyvinylidene difluoride (PVDF) membrane (Millipore). The membranes were blocked in 5% skim milk in 0.05% Tween 20/Tris-buffered saline (TBST) and incubated with primary antibody (dilutions in accordance to manufacturer's recommendations) overnight at […]. […] Immunoreactive proteins were detected with enhanced chemiluminescence reagents (Amersham Biosciences). […]

[10] = target: T3, tNhtt-62Q-kikGR protein (Homo sapiens, UniProt P42858, INS38QQQQQQQQQQQQQQQQQQQQQQQQQQQQQQQQQQQQQQQQQ); test: Chase experiment in tNhtt-62Q-kikGR Neuro2a cells after photo-cleavage; assay type: cell-based; conditions: twelve hours after irradiation
T3 construct: inserting the htt exon 1 with 62Q (HD62); monomeric KikGR (mKikGR; KikGR BAD95669 with A17S, G32R, I37T, N39T, C116T, V126T, N161E, Q167E, H219Y, L222T, P223Y) (C); expressed in transfected cells; host or cells: Neuro2a/FRT/TR cells (Flp-in/T-Rex), doxycycline induced
T3 sequence (P42858 with tags, fused parts or gaps with the stated changes): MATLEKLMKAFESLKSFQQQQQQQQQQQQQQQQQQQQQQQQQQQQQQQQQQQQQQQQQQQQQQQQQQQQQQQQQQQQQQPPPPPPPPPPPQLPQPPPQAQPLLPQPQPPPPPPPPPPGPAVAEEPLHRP
Description: as §1, with “(2003)).” for “(2003)). Neuro2a cells were differentiated with 5mM dbcAMP (N^6, 2′-O-dibutyryladenosine-3′,5′-cyclic monophosphate sodium salt) (Nacalai Tesque) and induced to express tNhtt-polyQ with 2 μM ponasterone A (ponA; Invitrogen) for indicated times. Neuro2a/FRT/TR cell line was generated as described in the protocol for Flp-in/T-Rex system (Invitrogen).”
Neuro2a tNhtt-62Q-kikGR cells were induced for 24 hours, and then the 62Q-kikGR was cleaved by 5 minutes irradiation of the cells. Chase phase lasted for 12 hours before the cells were collected and analyzed.
as §5

[11] = target: T4, tNhtt-150Q polyQ protein (Homo sapiens, UniProt P42858); test: Chase experiment in 150Q Neuro2a cells (Western blot); assay type: cell-based
T4 construct: N-terminal fragment of human huntington exon 1 (tNhtt); expressed in transfected cells
T4 sequence (P42858 with tags, fused parts or gaps): as the sequence (P42858 with tags, fused parts or gaps) above
Description: as §6, §7

## Cn1cnc(N)c2ncnc1-2 [3MA, 3-methyladenine]
[1]
  influence of inhibitor on the effect of HSC70bm on 60Q aggregation: did not

## CC(C)CC(=O)N[C@H](C(=O)N[C@H](C(=O)N[C@@H](CC(C)C)[C@@H](O)CC(=O)N[C@@H](C)C(=O)N[C@@H](CC(C)C)[C@@H](O)CC(=O)O)C(C)C)C(C)C [pepstatin A] (Isovaleryl-VV[Sta]A[Sta]-OH)
[1]
  influence of inhibitor on the effect of HSC70bm on 60Q aggregation: alleviated the effect of HSC70bm

## (QBP1)2 (MSNWKWWPGIFDSNWKWWPGIFD) [reference compound]
[2]
  decrease of the percentage of PI-positive cells: 12.3%
[3]; 150Q-nls Neuro2a cells, constructs without mRFP, 48 hours after induction
  reduction of aggregation compared to control counterparts (S and HS): 24.7%
[4]
  decrease of the percentage of PI-positive cells: 17.7%
[5]; constructs without mRFP, induced and differentiated for 24 hours
  decrease of aggregation compared to control counterparts (S and HS): 32.6%

## mRFP-(QBP1)2 (MSNWKWWPGIFDSNWKWWPGIFD; also: fused to mRFP) [RQ, monomeric red fluorescent protein fused to (QBP1)2, reference compound]
[6]
  levels of tNhtt-16Q: not affected
[3]
  decrease of the polyQ inclusion formation: 21.5%
[7]
  polyQ aggregation (gel top): markedly decreased
[5]
  decrease of inclusion formation: 38%
[8]
  localization relative to polyQ inclusions: co-localized with the polyQ inclusions

## mRFP-HSC70bm-(QBP1)2 (MARVKKDQAEPLHRKFERQPPGSNWKWWPGIFDSNWKWWPGIFD; also: fused to mRFP) [RHQ]
[6]
  levels of tNhtt-16Q: not affected
[3]
  decrease of the polyQ inclusion formation: 48.5%
[7]
  polyQ aggregation (gel top): much stronger effect; also recorded: markedly decreased
[5]; any knock-down combination
  effect on polyQ aggregation after silencing of HSC70 and/or Lamp2a with shRNA: inhibited
[5]
  decrease of inclusion formation: 56.5%
[9]
  enhancement of degradation of soluble tNhtt-60Q protein as compared to R: 43%
  enhancement of degradation of soluble tNhtt-60Q protein as compared with RQ: 37.4%
[10]
  decrease of full length (constitutively expressed) tNhtt-62Q-kikGR as compared to RQ: 24%
  decrease of levels of the cleaved form of tNhtt-62Q-kikGR protein as compared to RQ: 45.6%
[8]
  localization relative to polyQ inclusions: co-localized with the polyQ inclusions
[11]; autophagy activation by serum withdrawal
  clearance of aggregated and soluble polyQ: almost complete clearance
[11]; chase 24 hours
  degradation of the polyQ protein: enhanced degradation

Source: patent publication US20100016221A1, “METHOD OF DEGRADING PROTEIN BY CHAPERONE-MEDIATED AUTOPHAGY” (RIKEN, priority 2008, published 2010)
